Assay [1] relates to Cyclooxygenase. The assay is described as follows: ARBC whole cell cyclooxygenase assay (PGF2α formation in RBL-1 cells). Type of assay: cell-based, rat. The settings on record: 10 μm, A23187 stimulated, PGF2α by RIA. As for the experimental part: (§1) ARBL/ARBC Whole Cell 5-Lipoxygenase and Cyclooxygenase Assays The rat basophilic leukemia cell line (RBL 1) was obtained from the American Type Culture Collection (Rockville, Md.). Radioimmunoassay (RIA) kits of LTB4 and PGF2α were obtained from Amersham (Arlington Heights, Ill.) and Seragen (Boston, Mass.), respectively. RBL-1 cells are grown in suspension culture in Eagle's minimum essential medium supplemented with 12% fetal bovine serum at 37° C. in an incubator supplied with air 5% carbon dioxide. Cells are harvested by centrifugation. They are washed with cold phosphate buffered saline pH 7.4 (PBS; NaCl, 7.1 g; Na2 HPO4, 1.15 g; KH2 PO4, 0.2 g; and KCl, 0.2 g/l). Cells are finally suspended in PBS containing 1.0 mM calcium at a density of 2×10^6 cells/ml. Cells are incubated with and without test agent (in DMSO) (1% DMSO is without effect on arachidonic acid metabolism) for ten minutes at room temperature. Calcium ionophore A23187 (5 μM) is added and cells are incubated for seven minutes at 37° C. The reaction is stopped by chilling the tubes on ice for ten minutes. Cells are separated by centrifugation and the supernatant is stored at -20°. Aliquots (100 μl) are analyzed for LTB4 and PGF2α using radioimmunoassay kits as provided by the supplier. […]

The test system of assay [2] is 5-Lipoxygenase. The assay is described as follows: ARBL whole cell 5-lipoxygenase assay (LTB4 formation in RBL-1 cells). Type of assay: cell-based, rat. The note with it: 10 μm concentration, A23187 stimulated, LTB4 by RIA. Here is the method: as §1

For the compound `CN1OCC/C(=C\c2nc(C(C)(C)C)c(O)c(C(C)(C)C)n2)C1=O` [(E)-4-[[4,6-Bis(1,1-dimethylethyl)-5-hydroxy-2-pyrimidinyl]methylene]tetrahydro-2-methyl-2H-1,2-oxazin-3-one], in assay [1], the “inhibition for ARBC” value is 88%. In addition, the “inhibition for ARBL” value in assay [2] is given as 84%.
